Data from US9220268B2, “Herbicidal benzoxazinones” (BASF SE, priority 2009, dated 2015).

Key:
BRAPL [1] = experiment: greenhouse experiment, post-emergence, mixtures (Example 2, Colby); type: in vivo, Brachiaria plantaginea
Description: (§1) The culture containers used were plastic pots containing loamy sand with approximately 3.0% of humus as substrate. The seeds of the test plants were sown separately for each species.
(§2) For the post-emergence treatment, the test plants were grown to a plant height of from 3 to 15 cm, depending on the plant habit, and only then treated with the active compounds which had been suspended or emulsified in water. To this end, the test plants were either sown directly and grown in the same containers, or they were first grown separately as seedlings and transplanted into the test containers a few days prior to treatment.
(§3) Depending on the species, the plants were kept at 10-25° C. and 20-35° C., respectively. The test period extended over 2 to 4 weeks. During this time, the plants were tended and their response to the individual treatments was evaluated.
(§4) Evaluation was carried out using a scale from 0 to 100. 100 means no emergence of the plants, or complete destruction of at least the above-ground parts, and 0 means no damage or normal course of growth. Good herbicidal activity is given at values of at least 70, and very good herbicidal activity is given at values of at least 85.
(§5) The respective stated components A and B, and if appropriate, C were formulated as a 10% by weight strength emulsion concentrate and, with addition of the amount of solvent system, introduced into the spray liquor used for applying the active compound. In the examples, the solvent used was water.
(§6) The test period extended over 20 and 21 days, respectively. During this time, the plants were tended, and their reaction to the treatment with active compound was monitored.
(§7) In the examples below, using the method of S. R. Colby (1967) “Calculating synergistic and antagonistic responses of herbicide combinations”, Weeds 15, p. 22ff., the value E, which is expected if the activity of the individual active compounds is only additive, was calculated. […]
(§8) If the value found experimentally is higher than the value E calculated according to Colby, a synergistic effect is present.

AMBEL [2] = experiment: greenhouse experiment, pre-emergence, mixtures (Example 2, Colby); type: in vivo, Ambrosia artemisiifolia
Excerpt: as §1
(§9) For the pre-emergence treatment, the active compounds, suspended or emulsified in water, were applied directly after sowing by means of finely distributing nozzles. The containers were irrigated gently to promote germination and growth and subsequently covered with transparent plastic hoods until the plants had rooted. This cover caused uniform germination of the test plants unless this was adversely affected by the active compounds.
as §3, §4, §5, §6
(§10) In the examples below, using the method of S. R. Colby (1967) “Calculating synergistic and antagonistic responses of herbicide combinations”, Weeds 15, p. 22ff., the value E, which is expected if the activity of the individual active compounds is only additive, was calculated. E=X+Y−(X·Y/100) • where • X=percent activity using active compound A at an application rate a; • Y=percent activity using active compound B at an application rate b; • E=expected activity (in %) by A+B at application rates a+b.
as §8

AMARE = experiment: as above; type: in vivo, Amaranthus retroflexus
Excerpt: as §1, §9, §3, §4, §5, §6, §7, §8

SETFA [3] = experiment: greenhouse experiment, post-emergence, mixtures (Example 2, Colby); type: in vivo, Setaria faberi
Description: as §1, §2
(§11) Depending on the species, the plants were kept at 10-25° C. and 20-35° C., respectively. […] During this time, the plants were tended and their response to the individual treatments was evaluated. […]
as §6, §7, §8

SORHA = experiment: greenhouse experiment, pre-emergence, mixtures (Example 2, Colby); type: in vivo, Sorghum halepense
Excerpt: as §1, §9, §11, §6, §7, §8

SORPHA = experiment: greenhouse experiment, post-emergence, mixtures (Example 2, Colby); type: in vivo, Sorghum halepense
Description: as §1, §2, §11, §6, §7, §8

BIDPI = experiment: greenhouse experiment, pre-emergence, mixtures (Example 2, Colby); type: in vivo, Bidens pilosa
Excerpt: as §1, §9, §11, §6, §7, §8

ERBVI [4] = experiment: greenhouse experiment, post-emergence, mixtures (Example 2, Colby); type: in vivo, Eriochloa villosa
Description: as §1, §2, §11, §6, §7, §8

ELEIN = experiment: greenhouse experiment, pre-emergence, mixtures (Example 2, Colby); type: in vivo, Eleusine indica
Excerpt: as §1, §9, §11, §6, §7, §8

CHEAL = experiment: as above; type: in vivo, Chenopodium album
Excerpt: as §1, §9, §3, §4, §5, §6, §10, §8

ECHCG [5] = experiment: greenhouse experiment, post-emergence, mixtures (Example 2, Colby); type: in vivo, Echinocloa crus-galli
Description: as §1, §2, §11, §6, §7, §8

ALOMY [6] = experiment: as above; type: in vivo, Alopercurus myosuroides
Description: as §1, §2, §11, §6, §7, §8

POLCO = experiment: greenhouse experiment, pre-emergence, mixtures (Example 2, Colby); type: in vivo, Polygonum convolvulus
Excerpt: as §1, §9, §11, §6, §7, §8

ALOMY [7] = experiment: as above; type: in vivo, Alopercurus myosuroides
Excerpt: as §1, §9, §11, §6, §7, §8

SETVI = experiment: as above; type: in vivo, Setaria viridis
Excerpt: as §1, §9, §11, §6, §7, §8

ECHCG [8] = experiment: as above; type: in vivo, Echinocloa crus-galli
Excerpt: as §1, §9, §11, §6, §7, §8

ERBVI [9] = experiment: as above; type: in vivo, Eriochloa villosa
Excerpt: as §1, §9, §11, §6, §7, §8

BRAPL [10] = experiment: as above; type: in vivo, Brachiaria plantaginea
Excerpt: as §1, §9, §11, §6, §7, §8

SETFA [11] = experiment: greenhouse experiment, post-emergence treatment (Use Examples); type: in vivo, Setaria faberi; conditions: post-emergence method; application rate 0.025 kg/ha; scale 0 to 100
Excerpt: (§12) The culture containers used were plastic flowerpots containing loamy sand with approximately 3.0% of humus as the substrate. The seeds of the test plants were sown separately for each species.
(§13) For the post-emergence treatment, the test plants were first grown to a height of 3 to 15 cm, depending on the plant habit, and only then treated with the active ingredients which had been suspended or emulsified in water. For this purpose, the test plants were either sown directly and grown in the same containers, or they were first grown separately as seedlings and transplanted into the test containers a few days prior to treatment.
(§14) Depending on the species, the plants were kept at 10-25° C. or 20-35° C. The test period extended over 2 to 4 weeks. During this time, the plants were tended, and their response to the individual treatments was evaluated.
(§15) Evaluation was carried out using a scale from 0 to 100. 100 means no emergence of the plants, or complete destruction of at least the aerial moieties, and 0 means no damage, or normal course of growth. A good herbicidal activity is given at values of at least 70 and a very good herbicidal activity is given at values of at least 85.

BRAPL [12] = experiment: as above; type: in vivo, Brachiaria plantaginea; conditions: post-emergence method; application rate 0.025 kg/ha; scale 0 to 100
Excerpt: as §12, §13, §14, §15

AMBEL [13] = experiment: greenhouse experiment, pre-emergence treatment (Use Examples); type: in vivo, Ambrosia elatior; conditions: pre-emergence method; application rate 0.050 kg/ha; scale 0 to 100
Excerpt: as §12
as §9, with “active ingredients, which had been” for “active compounds,”, “test plants,” for “test plants”, “this has been impaired” for “this was adversely affected”, “active ingredients.” for “active compounds.”
as §14, §15

CC(C)N(C)S(=O)(=O)NC(=O)c1cc(-n2c(=O)cc(C(F)(F)F)n(C)c2=O)c(F)cc1Cl [B.76, saflufenacil, reference compound]
herbicidal activity against BRAPL found (BRAPL [1]; B.76 12.5 g/ha a.s.): 30% | herbicidal activity against AMBEL found (AMBEL [2]; B.76 6.25 g/ha a.s.): 75% | herbicidal activity against AMARE found (AMARE; B.76 3.12 g/ha a.s.): 35% | herbicidal activity against SETFA found (SETFA [3]; B.76 12.5 g/ha a.s.): 30% | herbicidal activity against SORHA found (SORHA; B.76 6.25 g/ha a.s.): 0% | herbicidal activity against SORPHA found (SORPHA; B.76 12.5 g/ha a.s.): 25% | herbicidal activity against BIDPI found (BIDPI; B.76 6.25 g/ha a.s.): 60% | herbicidal activity against ERBVI found (ERBVI [4]; B.76 12.5 g/ha a.s.): 60% | herbicidal activity against ELEIN found (ELEIN; B.76 6.25 g/ha a.s.): 30% | herbicidal activity against CHEAL found (CHEAL; B.76 3.12 g/ha a.s.): 30%

O=C(O)CNCP(=O)(O)O [B.95, glyphosate, reference compound]
herbicidal activity against BRAPL found (BRAPL [1]; B.95 135 g/ha a.s.): 95% | herbicidal activity against ECHCG found (ECHCG [5]; B.95 135 g/ha a.s.): 85% | herbicidal activity against ALOMY found (ALOMY [6]; B.95 135 g/ha a.s.): 80%

CCC(CC)Nc1c([N+](=O)[O-])cc(C)c(C)c1[N+](=O)[O-] [B.101, pendimethalin, reference compound]
herbicidal activity against POLCO found (POLCO; B.101 400 g/ha a.s.): 40% | herbicidal activity against ALOMY found (ALOMY [7]; B.101 400 g/ha a.s.): 75%

COC[C@H](C)N(C(=O)CCl)c1c(C)csc1C [B.106, dimethenamid-p, reference compound]
herbicidal activity against AMARE found (AMARE; B.106 15 g/ha a.s.): 75% | herbicidal activity against SETVI found (SETVI; B.106 15 g/ha a.s.): 70% | herbicidal activity against ECHCG found (ECHCG [8]; B.106 15 g/ha a.s.): 85% | herbicidal activity against CHEAL found (CHEAL; B.106 15 g/ha a.s.): 10%

Cn1nc(C(F)(F)F)c(CS(=O)(=O)C2=NOC(C)(C)C2)c1OC(F)F [B.116, pyroxasulfone, reference compound]
herbicidal activity against ERBVI found (ERBVI [9]; B.116 6.25 g/ha a.s.): 45% | herbicidal activity against AMBEL found (AMBEL [2]; B.116 6.25 g/ha a.s.): 0% | herbicidal activity against BRAPL found (BRAPL [10]; B.116 6.25 g/ha a.s.): 30%

C#CCN1C(=O)C(F)(F)Oc2cc(F)c(-n3c(=O)n(C)c(=S)n(C)c3=O)cc21 [I.a.35, 1,5-dimethyl-6-thioxo-3-(2,2,7-trifluoro-3-oxo-4-(prop-2-ynyl)-3,4-dihydro-2H-benzo [b][1,4]oxazin-6-yl)-1,3,5-triazinane-2,4-dione]
herbicidal activity against POLCO found (POLCO; I.a.35 25 g/ha a.s.): 65% | herbicidal activity against BRAPL found (BRAPL [1]; I.a.35 12.5 g/ha a.s.): 65% | herbicidal activity against ERBVI found (ERBVI [9]; I.a.35 25 g/ha a.s.): 55% | herbicidal activity against ECHCG found (ECHCG [5]; I.a.35 12.5 g/ha a.s.): 75% | herbicidal activity against AMBEL found (AMBEL [2]; I.a.35 12.5 g/ha a.s.): 60% | herbicidal activity against AMBEL found (AMBEL [2]; I.a.35 25 g/ha a.s.): 75% | herbicidal activity against ALOMY found (ALOMY [7]; I.a.35 25 g/ha a.s.): 65% | herbicidal activity against AMARE found (AMARE; I.a.35 3.12 g/ha a.s.): 70% | herbicidal activity against SETFA found (SETFA [3]; I.a.35 12.5 g/ha a.s.): 75% | herbicidal activity against SETVI found (SETVI; I.a.35 12.5 g/ha a.s.): 90% | herbicidal activity against BRAPL found (BRAPL [10]; I.a.35 25 g/ha a.s.): 50% | herbicidal activity against SORHA found (SORHA; I.a.35 12.5 g/ha a.s.): 60% | herbicidal activity against ALOMY found (ALOMY [6]; I.a.35 12.5 g/ha a.s.): 30% | herbicidal activity against SETFA (SETFA [11]): very good (a very good herbicidal activity is given at values of at least 85) | herbicidal activity against SORPHA found (SORPHA; I.a.35 12.5 g/ha a.s.): 80% | herbicidal activity against BIDPI found (BIDPI; I.a.35 12.5 g/ha a.s.): 30% | herbicidal activity against BRAPL (BRAPL [12]): very good (a very good herbicidal activity is given at values of at least 85) | herbicidal activity against ECHCG found (ECHCG [8]; I.a.35 12.5 g/ha a.s.): 30% | herbicidal activity against AMBEL (AMBEL [13]): very good (a very good herbicidal activity is given at values of at least 85) | herbicidal activity against ERBVI found (ERBVI [4]; I.a.35 12.5 g/ha a.s.): 70% | herbicidal activity against ELEIN found (ELEIN; I.a.35 12.5 g/ha a.s.): 45% | herbicidal activity against CHEAL found (CHEAL; I.a.35 3.12 g/ha a.s.): 85% | herbicidal activity against CHEAL found (CHEAL; I.a.35 6.25 g/ha a.s.): 85%
